Peptide text beside a SMILES is read from it. * marks the point of attachment. Cbz = O=C(OCc1ccccc1)*; CH2F = FC*
Assays:
Type in all cases: cell-based
[1] = tested on: 4T1 metastatic breast tumor cells; test: Cytotoxicity in 4T1 metastatic breast tumor cells by PI staining, immunofluorescent timelapse microscopy
Experimental: Specifically, in FIGS. 9A-9C, 4T1 cells were infected with PA103 strains expressing ExoT or defective in ExoT expression (Mock), or treated with 50 μM cisplatinum (Cisplatin).
Specifically, 4T1 cells were infected with PA103 strains expressing ExoT (ExoT) […] or defective in ExoT expression (Mock) (FIG. 9A), or treated with 50 μM cisplatinum (Cisplatin) (FIG. 9C). Cytotoxicity was determined by propidium iodide (PI) staining using immunofluorescent timelapse microscopy (FIG. 9D).

[2] = tested on: HeLa cells; test: Apoptosis / cell death of transiently transfected HeLa cells by IF time-lapse video microscopy with propidium iodide
Excerpt: FIGS. 2A-2D illustrate photographically, graphically and in a chart that transient transfection of DN Crk induces cell death in HeLa cells. Specifically, HeLa cells were transiently transfected with wild type CrkI (pCrkI), SH2 DN (pCrkI/R38K), or SH3 DN (pCrkI/W170K) fused to C FP in the absence (FIG. 2A) or presence (FIG. 2B) of carbobenzoxy-valyl-alanyl-aspartyl-[O-methyl], or ZVAD. The tabulated results shown in FIG. 2D, were collected from multiple videos. The time to death was defined as the time of expression of transfected gene (appearance of green) to the time of PI uptake (appearance of yellow) and expressed as the mean+SEM.
We postulated that if modification of Crk by ExoT is responsible for inducing anoikis, DN mutations in CrkI domains might also result in apoptosis, phenocopying the ExoT's cytotoxicity. To investigate this hypothesis, HeLa cells were transfected with mammalian expression vectors harboring CrkI or its SH2 (CrkI/R38K) or SH3 (CrkI/W170K) DN mutant forms, fused at their C-termini to GFP, and assessed apoptosis by IF video microscopy in the presence or absence of Z-VAD, a pancaspase inhibitor that blocks known apoptotic cell deaths. […]
(§1) ExoT inhibits ASCS formation. […] We assessed the proliferation capacity index associated with ExoT- or CrkI apoptotic cells. […]

[3] = tested on: HeLa cells; test: ACSC formation, release and signalling in transfected apoptotic HeLa cells (IF time-lapse microscopy)
Excerpt: Specifically, HeLa cells were transiently transfected with CrkI-GFP expression vector. CrkI forms complexes (indicated […] which go through a cytoplasmic bridge from a dying cell (indicated by red arrow) and induce healthy neighbor recipient cells (indicated by yellow arrow) to divide. Six frames (FIGS. 3A-3F) from IF timelapse microscopy are shown.
FIG. 4 graphically illustrates that ACSC formation is an active process. Specifically, the incidence of apoptotic compensatory signaling complex (ACSC) release from CrkI, CrkI-R38K (SH2 DN), and CrkI-VV170K (SH3 DN) transfected HeLa cells is shown in bar chart form.
FIG. 5 graphically illustrates that ACSC formation is regulated differently by SH2 and SH3 domains. Specifically, the number of ACSC complexes per apoptotic CrkI, CrkI (SH2 DN), and CrkI (SH3 DN) transfected HeLa cells was determined and the results are presented in bar chart form.
FIGS. 6A-6C photographically illustrate that the ADPRT domain of ExoT appears to inhibit ACSC. […]
as §1

[4] = tested on: HeLa-S3 cells; test: Cytotoxicity of ExoT-expressing PA103 infection in anoikis-resistant HeLa-S3 cells (PI uptake, video microscopy); conditions: ExoT-expressing PA103 strain, MOI about 10
Experimental: Anoikis-sensitive (HeLa) or Anoikis-resistant (HeLa S3) cells were infected with the ExoT-expressing PA strain (PA103 AU) at an MOI of ca. 10. Host cell death was assessed by uptake of propidium iodide (PI) by simultaneous time lapse phase and fluorescent video microscopy. Video images were captured every 15 min. Representative frames are shown.
To test this hypothesis, 1×10^5 HeLa and HeLa-S3 cells were infected with ExoT-expressing PA103 strain at MOI of about 10 and assessed apoptosis by immunofluorescent (IF) video microscopy in the presence of propidium iodide (PI) as described.

[5] = tested on: HeLa cells; test: Proliferation capacity index of transfected apoptotic cells (mitotic cells in neighbouring cells); conditions: compared to CrkI-transfected apoptotic cells; within six hours after cell rounding
Excerpt: FIG. 7 graphically illustrates that ExoT blocks ACSC-induced proliferation in surrounding cells. Specifically, the proliferation capacity index of the CrkI-EGFP or ExoTEGFP transfected apoptotic cells was defined based on the capacity to induce proliferation in the neighboring cells within six hours after cell rounding.
ExoT inhibits ASCS formation. […] If ExoT inhibited ACSC assembly and signaling, it was reasoned that there should be a reduction in the number of mitotic cells surrounding the ExoT-induced apoptotic cells. We assessed the proliferation capacity index associated with ExoT- or CrkI apoptotic cells. […] Without being bound to any particular theory, it is believed that CrkI adaptor protein functions as a scaffold for the ACSC assembly and that PA utilizes ExoT to block this process while inducing apoptosis in its target host.

[6] = tested on: B16 melanoma cells; test: Cytotoxicity in B16 melanoma cells by PI staining, immunofluorescent time lapse microscopy; conditions: infection with ExoT-expressing P. aeruginosa, MOI 10, or transfection with ExoT-EGFP
Experimental: Specifically, FIGS. 8A-8C are photographs of B16 cells infected with Pseudomonas aeruginosa strains expressing ExoT or defective in ExoT (Mock) at a multiplicity of infection (MOI) 10 or treated with 50 μM cisplatinum. Cytotoxicity was determined by measuring propidium iodide (PI) staining using immunofluorescent time lapse microscopy. FIG. 8D graphically illustrates the level of cell death, for the samples of FIGS. 8A-8C as indicated by PI staining intensity in pixels as measured from each frame using NIH Image J software.
B16 cells were infected with Pseudomonas aeruginosa strains expressing ExoT or defective in ExoT (Mock), at multiplicity of infection (MOI) 10 or treated with 50 μM cisplatinum (FIGS. 8A-8C). Cytotoxicity was determined by measuring propidium iodide (PI) staining (red) using immunofluorescent time lapse microscopy. Still images are shown. The level of cell death, indicated by PI staining intensity (pixels), was measured from each frame using NIH Image J software (FIG. 8D). B16 melanoma cells were transiently transfected with pIRES expression vectors, harboring ExoT-EGFP or EGFP alone. Cytotoxicity was determined by PI staining using IF microscopy.

N.N.[Cl][Pt][Cl] [cisplatin, cisplatinum, reference compound]
cell death in 4T1 cells ([1]; 50 μM cisplatinum): kill 4T1 cells

COC(=O)C[C@H](NC(=O)[C@H](C)NC(=O)[C@@H](NC(=O)OCc1ccccc1)C(C)C)C(=O)CF [Z-VAD, carbobenzoxy-valyl-alanyl-aspartyl-[O-methyl], reference compound] (Cbz-Val-Ala-Asp(OMe)-CH2F)
apoptotic PCD ([2]; treatment with Z-VAD): blocked
ACSC formation ([3]; treatment with Z-VAD, all conditions): completely blocked

ExoT
apoptosis (cell death) in transfected HeLa cells ([2]; transient transfection with expression vector, IF video microscopy, PI): 100%
ACSC-like globular complexes in transfected apoptotic HeLa cells ([3]; transfection with ExoT fusion vectors): never observed
ExoT-induced cytotoxicity in HeLa-S3 cells [4]: resistant
percentage of mitotic cells surrounding transfected apoptotic HeLa cells [5]: substantial reduction
cytotoxicity in B16 melanoma cells [6]: potent cytotoxicity
cell death in 4T1 cells ([1]; infection with PA103 strain expressing ExoT): potent inducer of cell death
